Test results taken from US10351550B2, “Substituted quinazoline compounds and methods of use thereof” (Araxes Pharma LLC, priority 2015, dated 2019).
Marks after values point to notes of the source that are not given here.

Target: T1, KRAS G12C 1-169, his-tagged protein, GDP-loaded (Homo sapiens, UniProt P01116, G12C)
T1 construct: KRAS G12C 1-169, his-tagged protein, GDP-loaded
Assay: Biochemical assay: covalent binding (% modification) to KRAS G12C by mass spectrometry
Procedure: Test compounds were prepared as 10 mM stock solutions in DMSO (Fisher cat# BP-231-100). KRAS G12C 1-169, his-tagged protein, GDP-loaded was diluted to 2 μm in buffer (20 mM Hepes, 150 mM NaCl, 1 mM MgCl2). Compounds were tested for activity as follows:
Compounds were diluted to 50× final test concentration in DMSO in 96-well storage plates. Compound stock solutions were vortexed before use and observed carefully for any sign of precipitation. Dilutions were as follow: • 1. For 100 μM final compound concentration, compounds were diluted to 5000 μM (5 μl 10 mM compound stock+5 μl DMSO and mixed well by pipetting. • 2. For 30 μM final compound concentration, compounds were diluted to 1500 μM (3 μl 10 mM compound stock+17 μl DMSO) and mixed well by pipetting. • 3. For 10 μM final compound concentration, compounds were diluted to 500 μM (2 μl 10 mM compound stock+38 μl DMSO) and mixed well by pipetting. 49 μl of the stock protein solution was added to each well of a 96-well PCR plate (Fisher cat#1423027). 1 μl of the diluted 50× compounds were added to appropriate wells in the PCR plate using 12-channel pipettor. Reactions were mixed carefully and thoroughly by pipetting up/down with a 200·1 multi-channel pipettor. […] 5·1 of 2% formic acid (Fisher cat# A117) in DI H2O was then added to each well followed by mixing with a pipette. The plate was then resealed with aluminum seal and stored on dry ice until analyzed as described below.
The above described assays were analyzed by mass spectrometry according to one of the following two procedures:
The MS instrument is set to positive polarity, 2 GHz resolution, and low mass (1700) mode and allowed to equilibrate for 30 minutes. The instrument is then calibrated, switched to acquisition mode and the appropriate method loaded.
After another 30 minute equilibration time, a blank batch (i.e., buffer) is run to ensure equipment is operating properly. The samples are thawed at 37° C. for 10 minutes, briefly centrifuged, and transfer to the bench top. Wells A1 and H12 are spiked with 1 uL 500 uM internal standard peptide, and the plates centrifuged at 2000×g for 5 minutes. The method is then run and masses of each individual well recorded.
The masses (for which integration data is desired) for each well are pasted into the platemap and exported from the analysis. Masses for the internal standards are exported as well. The data at 50 ppm is extracted for the +19 charge state, and identity of well A1 is assigned using the internal standard spike and integrated. Peak data is exported as a TOF list and the above steps are repeated individually, for the +20, 21, 22, 23, 24, and 25 charge states.
The masses and peak intensities of KRAS G12C protein species were measured using a Dionex RSLCnano system (Thermo Scientific) connected to a Q Exactive Plus mass spectrometer (Thermo Scientific).
[…] of sample was each loaded onto a Aeris™ 3.6 μm WIDEPORE C4 200 Å, LC Column 50×2.1 mm column maintained at 40° C. at a flow rate of 600 μl min^1 with 20% Solvent A (0.1% formic acid in H2O) and 80% Solvent B (0.1% formic acid in acetonitrile). The liquid chromatography conditions were 20% solvent B for 1 min, 20% to 60% solvent B for 1.5 min, 60% to 90% solvent for 0.5 min, 90% solvent B for 0.2 min, 90% to 20% solvent B for 0.2 min, and then equilibrated for 1.6 min before the following sample injection. The flow rate was maintained at 600 μl min^1 throughout the sample analysis.
The mass spectrometer was operated in profile mode at a resolution of 17500, 5 microscans, using 50 msec max injection time and an AGC target of 1e6, and a full mass range from 800-1850 m/z was recorded. The HCD trapping gas was optimized for maximum sensitivity for intact proteins. The ionization method was electrospray ionization, which used a spray voltage of 4 kV, sheath gas flow set to 50 au, auxiliary gas flow set to 10 au and sweep gas flow set to 1 au. […]

[1] = binding activity determined at 6 hours
[2] = binding activity determined at 4 hours
[3] = binding activity determined at 2 hours

Structure (SMILES) | Binding % [1] | Binding % [2] | Binding % [3] | other results
C=CC(=O)N1CC(n2cnc3c(F)c(-c4c(C)ccc5cn[nH]c45)c(Cl)cc3c2=O)C1 [Compound 8, 3-(1-acryloylazetidin-3-yl)-6-chloro-8-fluoro-7-(6-methyl-1H-indazol-7-yl)quinazolin-4(3H)-one] | ++^‡ (++ indicates binding activity from 5% up to 50%) | – | – | –
C=CC(=O)Nc1cnc2c(F)c(-c3c(O)cccc3F)c(Cl)cc2c1N1CCN(C(C)=O)CC1 [Compound 3, N-(4-(4-acetylpiperazin-1-yl)-6-chloro-8-fluoro-7-(2-fluoro-6-hydroxyphenyl)quinolin-3-yl)acrylamide] | – | ++^† (++ indicates binding activity from 5% up to 50%) | – | –
C=CC(=O)NC1CC(n2cnc3c(F)c(-c4c(O)cccc4F)c(Cl)cc3c2=O)C1 (stereo not shown) [Compound 2, N-(3-(6-chloro-8-fluoro-7-(2-fluoro-6-hydroxyphenyl)-4-oxoquinazolin-3(4H)-yl)cyclobutyl)acrylamide] | – | ++^† (++ indicates binding activity from 5% up to 50%) | – | covalently bind to KRAS G12C, extent (% of protein in the well covalently bound to test compound) (time and concentration not given): greater than 30%
C=CC(=O)N1CC(n2cnc3c(F)c(-c4c(O)cccc4F)c(Cl)cc3c2=O)C1 [Compound 4, 3-(1-acryloylazetidin-3-yl)-6-chloro-8-fluoro-7-(2-fluoro-6-hydroxyphenyl)quinazolin-4(3H)-one] | – | ++^† (++ indicates binding activity from 5% up to 50%) | – | –
C=CC(=O)N1CC(n2cnc3cc(-c4c(O)cccc4F)ccc3c2=O)C1 [Compound 5, 3-(1-acryloylazetidin-3-yl)-7-(2-fluoro-6-hydroxyphenyl) quinazolin-4(3H)-one] | ++^‡ (++ indicates binding activity from 5% up to 50%) | – | – | –
C=CC(=O)N1CC(n2cnc3c(Cl)c(-c4cc(O)cc5ccccc45)c(F)cc3c2=O)C1 [Compound 10, 3-(1-acryloylazetidin-3-yl)-8-chloro-6-fluoro-7-(3-hydroxynaphthalen-1-yl)quinazolin-4(3H)-one] | +++^‡ (+++ indicates binding activity 50% or greater) | – | +++; (+++ indicates binding activity 50% or greater) | –
C=CC(=O)N1CC(n2cnc3c(Cl)c(-c4cc(O)cc5ccccc45)c(N)cc3c2=O)C1 [Compound 12, 3-(1-acryloylazetidin-3-yl)-6-amino-8-chloro-7-(3-hydroxynaphthalen-1-yl)quinazolin-4(3H)-one] | – | – | ++ (++ indicates binding activity from 5% up to 50%) | –
C=CC(=O)N1CC(n2cnc3c(F)cc(-c4ccccc4O)cc3c2=O)C1 [Compound 9, 3-(1-acryloylazetidin-3-yl)-8-fluoro-6-(2-hydroxyphenyl) quinazolin-4(3H)-one] | +^‡ (+ indicates binding activity up to 5%) | – | – | –
C=CC(=O)N1CC(n2cnc3c(F)c(-c4cc(O)ccc4Cl)c(Cl)cc3c2=O)C1 [Compound 6, 3-(1-acryloylazetidin-3-yl)-6-chloro-7-(2-chloro-5-hydroxyphenyl)-8-fluoroquinazolin-4(3H)-one] | – | +++^† (+++ indicates binding activity 50% or greater) | ++; (++ indicates binding activity from 5% up to 50%) | –
C=CC(=O)N1CCCC(n2cnc3c(F)c(-c4c(O)cccc4F)c(Cl)cc3c2=O)C1 (stereo not shown) [Compound 1, 3-(1-acryloylpiperidin-3-yl)-6-chloro-8-fluoro-7-(2-fluoro-6-hydroxyphenyl)quinazolin-4(3H)-one] | – | ++^† (++ indicates binding activity from 5% up to 50%) | – | –
C=CC(=O)N1CC(n2cnc3c(Cl)c(-c4cc(O)cc5ccccc45)cc(O)c3c2=O)C1 [Compound 14, 3-(1-acryloylazetidin-3-yl)-8-chloro-5-hydroxy-7-(3-hydroxynaphthalen-1-yl)quinazolin-4(3H)-one] | – | – | +++ (+++ indicates binding activity 50% or greater) | –
C=CC(=O)N1CC(n2cnc3c(F)c(-c4cc(O)cc5ccccc45)c(Cl)cc3c2=O)C1 [Compound 7, 3-(1-acryloylazetidin-3-yl)-6-chloro-8-fluoro-7-(3-hydroxynaphthalen-1-yl)quinazolin-4(3H)-one] | +++^‡ (+++ indicates binding activity 50% or greater) | – | +++; (+++ indicates binding activity 50% or greater) | –
